From ChEMBL document CHEMBL1201862, “PubChem BioAssay data set” (2004)
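48-hour exposure; five concentrations; linearly interpolated endpoints. GI50: concentration for 50% inhibition of growth.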 Active and inactive are the calls of the source. No stated cut-off is given here; in the data, active = GI50 up to about 1.1 µM and inactive = higher.

What was measured:
Assay in all cases: DTP human tumour cell line panel, 48 h
A549 = test system: A549
OVCAR-5 = test system: OVCAR-5
SF-268 = test system: SF-268
OVCAR-4 = test system: OVCAR-4
SR = test system: SR
U-251 = test system: U-251
786-0 = test system: 786-0
PC-3 = test system: PC-3
SK-MEL-2 = test system: SK-MEL-2
LOX IMVI = test system: LOX IMVI
HT-29 = test system: HT-29
UO-31 = test system: UO-31
HOP-92 = test system: HOP-92
SNB-75 = test system: SNB-75
UACC-62 = test system: UACC-62
MDA-N = test system: MDA-N
MDA-MB-231 = test system: MDA-MB-231
CAKI-1 = test system: CAKI-1
UACC-257 = test system: UACC-257
IGROV-1 = test system: IGROV-1
SNB-19 = test system: SNB-19
NCI-H522 = test system: NCI-H522
SK-OV-3 = test system: SK-OV-3
NCI-H23 = test system: NCI-H23
M14 = test system: M14
MCF7 = test system: MCF7
COLO 205 = test system: COLO 205
MOLT-4 = test system: MOLT-4
HCC 2998 = test system: HCC 2998
HCT-15 = test system: HCT-15
HOP-62 = test system: HOP-62
SF-295 = test system: SF-295
EKVX = test system: EKVX
CCRF-CEM = test system: CCRF-CEM
NCI/ADR-RES = test system: NCI/ADR-RES
ACHN = test system: ACHN
NCI-H460 = test system: NCI-H460
T47D = test system: T47D
TK-10 = test system: TK-10
SF-539 = test system: SF-539
HCT-116 = test system: HCT-116
Hs-578T = test system: Hs-578T
SW-620 = test system: SW-620
OVCAR-8 = test system: OVCAR-8
SK-MEL-5 = test system: SK-MEL-5
NCI-H226 = test system: NCI-H226
OVCAR-3 = test system: OVCAR-3
BT-549 = test system: BT-549
DU-145 = test system: DU-145
MDA-MB-435 = test system: MDA-MB-435
K562 = test system: K562
Malme-3M = test system: Malme-3M
KM12 = test system: KM12
SK-MEL-28 = test system: SK-MEL-28
A498 = test system: A498
RXF 393 = test system: RXF 393
SN12C = test system: SN12C

Measured: GI50

CC(C)C(C/C=C1\CC(CO)(COC(=O)C2CCCCC2)OC1=O)C(C)C (configuration not stated)
inactive: A549 16.8 µM | OVCAR-5 20 µM | SF-268 17.7 µM | OVCAR-4 18 µM | SR 27 µM | U-251 19 µM | 786-0 13.7 µM | PC-3 18.2 µM | SK-MEL-2 > 100 µM | LOX IMVI 15.7 µM | HT-29 30.6 µM | UO-31 17.4 µM | HOP-92 16.9 µM | SNB-75 12.9 µM | UACC-62 43.8 µM | MDA-N 24.1 µM | MDA-MB-231 16.8 µM | CAKI-1 18.7 µM | UACC-257 32.2 µM | IGROV-1 22.9 µM | SNB-19 16.3 µM | NCI-H522 16.5 µM | SK-OV-3 > 100 µM | NCI-H23 20.6 µM | M14 21.8 µM | MCF7 21.2 µM | COLO 205 10.3 µM | MOLT-4 6.87 µM | HCC 2998 27.9 µM | HOP-62 13.2 µM | SF-295 16.3 µM | EKVX 19 µM | CCRF-CEM 16.9 µM | NCI/ADR-RES 20.7 µM | ACHN 16 µM | NCI-H460 24.4 µM | T47D 21.2 µM | TK-10 21 µM | SF-539 20.3 µM | HCT-116 19.2 µM | Hs-578T 13.2 µM | SW-620 21.3 µM | OVCAR-8 18.7 µM | SK-MEL-5 31.6 µM | NCI-H226 18.2 µM | OVCAR-3 20 µM | BT-549 23.7 µM | DU-145 12.3 µM | MDA-MB-435 44.8 µM | K562 6.25 µM | Malme-3M 16.2 µM | KM12 18.4 µM | SK-MEL-28 16.6 µM | A498 44.8 µM | RXF 393 19.1 µM | SN12C 16.7 µM
21.7 µM: HCT-15
